20 compounds from EP4603105A1, “PHARMACEUTICAL COMPOSITION CONTAINING CYCLIC COMPOUND HAVING SELECTIVE KRAS INHIBITORY EFFECT AGAINST HRAS AND NRAS” (CHUGAI SEIYAKU KABUSHIKI KAISHA, priority 2022, dated 2024) can be followed below.

Where a SMILES comes first, the peptide text is derived from it. Bridges are numbered along the chain shown (N, C = ends). [ ]: non-standard residue; d: D form. The star is where a group is joined. hPhe(3-Cl-4-CF3) = N[C@@H](CCc1ccc(C(F)(F)F)c(Cl)c1)C(=O)O; NPrPhe(4-CF3) = CCCN[C@@H](Cc1ccc(C(F)(F)F)cc1)C(=O)O; NMeGly(cPent) = CN[C@H](C(=O)O)C1CCCC1; Pro(4S-Me) = C[C@@H]1CN[C@H](C(=O)O)C1; NMeD = CN[C@@H](CC(=O)O)C(=O)O; NMeL = CN[C@@H](CC(C)C)C(=O)O; Morpholide = C1CN(*)CCO1; NMeA = CN[C@@H](C)C(=O)O; Ac5c = NC1(C(=O)O)CCCC1; Aze = O=C(O)[C@@H]1CCN1; NEtG = CCNCC(=O)O; Sar = CNCC(=O)O

The assay has as its system human lung cancer strain NCI-H441. The format is cell-based. The procedure:
A test compound was dispensed into a U-bottom 384-well plate as 40 nL serially diluted dimethyl sulfoxide solutions using a liquid handler Echo (LABCYTE). […] This cell suspension was dispensed in an amount of 40 µL per well into a plate containing the test compound, and cultured at 37°C in a 5% carbon dioxide gas incubator. Four days later, 20 µL of CellTiter-Glo (registered trademark) (Promega) was added to each well and […] was measured. […]
On to `CCCN1C(=O)CN(C)C(=O)CN(CC)C(=O)[C@H]([C@@H](C)CC)NC(=O)[C@H](CC(C)C)N(C)C(=O)C[C@@H](C(=O)N2CCOCC2)N(C)C(=O)[C@H](C2CCCC2)N(C)C(=O)C2(CCCC2)NC(=O)[C@@H]2C[C@H](C)CN2C(=O)[C@H](CCc2ccc(C(F)(F)F)c(Cl)c2)NC(=O)CN(C)C(=O)[C@@H]1Cc1ccc(C(F)(F)F)cc1` [PP0451] ([NMeL]I[NEtG][Sar][NPrPhe(4-CF3)][Sar][hPhe(3-Cl-4-CF3)][Pro(4S-Me)][Ac5c][NMeGly(cPent)][NMeD]-Morpholide; lactam N-11), for which the IC50 (commonly the point on the concentration scale where inhibition reaches its midpoint) was determined as 11.2 nM.
Then `CCCN1C(=O)[C@@H]2CCN2C(=O)[C@H](C)N(C)C(=O)[C@H]([C@@H](C)CC)NC(=O)[C@H](CC(C)C)N(C)C(=O)C[C@@H](C(=O)N2CCOCC2)N(C)C(=O)[C@H](C2CCCC2)N(C)C(=O)C2(CCCC2)NC(=O)[C@@H]2C[C@H](C)CN2C(=O)[C@H](CCc2ccc(C(F)(F)F)c(Cl)c2)NC(=O)CN(C)C(=O)[C@@H]1Cc1ccc(C(F)(F)F)cc1` [PP0455] ([NMeL]I[NMeA][Aze][NPrPhe(4-CF3)][Sar][hPhe(3-Cl-4-CF3)][Pro(4S-Me)][Ac5c][NMeGly(cPent)][NMeD]-Morpholide; lactam N-11), with 9.9 nM; and `CC[C@H](C)[C@@H]1NC(=O)[C@H](CC(C)C)N(C)C(=O)C[C@@H](C(=O)N2CCOCC2)N(C)C(=O)[C@H](C2CCCC2)NC(=O)C2(CCCC2)NC(=O)[C@@H]2CCCN2C(=O)[C@H](CCc2cc(F)c(C(F)(F)F)c(F)c2)NC(=O)CN(C)C(=O)[C@H](Cc2ccc(C(F)(F)F)cc2)N2CCCCC[C@@H](C2=O)N(C)C(=O)CN(C)C1=O` [PP0478], with 2750 nM; and `CCO[C@@H]1C[C@H]2C(=O)NC3(CCC3)C(=O)N(C)[C@@H](C(CC)CC)C(=O)N(C)[C@H](C)CC(=O)N(C)[C@@H](CC3CCCC3)C(=O)N[C@@H]([C@@H](C)CC)C(=O)N(C)CC(=O)N(C)[C@H]3C/C=C\CCN(C3=O)[C@@H](Cc3ccc(F)cc3)C(=O)N(C)CC(=O)N[C@@H](CCc3cc(F)c(C(F)(F)F)c(F)c3)C(=O)N2C1` [PP1523], with 320 nM.
Consider `CCC[C@H]1C(=O)N[C@@H]([C@@H](C)CC)C(=O)N(C)CC(=O)N(C)[C@H]2C/C=C\CCN(C2=O)[C@@H](Cc2ccc(C)cc2)C(=O)N(C)CC(=O)N[C@@H](CCc2ccc(C(F)(F)F)c(Cl)c2)C(=O)N2C[C@@H](C)C[C@H]2C(=O)NC2(CCC2)C(=O)N(C)[C@@H](C2CCCC2)C(=O)N(C)[C@H](C(=O)N(C)CC)CC(=O)N1C` [PP1848], for which inhibition was half-maximal at 22.5 nM (IC50).
With `CCC[C@H]1C(=O)N[C@@H]([C@@H](C)CC)C(=O)N(C)CC(=O)N(C)[C@H]2C/C=C\CCN(C2=O)[C@@H](Cc2ccc(C)cc2)C(=O)N(C)CC(=O)N[C@@H](CCc2ccc(C(F)(F)F)c(Cl)c2)C(=O)N2C[C@H](C)C[C@H]2C(=O)NC2(CCC2)C(=O)N(C)[C@@H](C2CCCC2)C(=O)N(C)[C@H](C(=O)N(C)CC)CC(=O)N1C` [PP1850] the figure was 49.1 nM; with `CC[C@H](C)[C@@H]1NC(=O)[C@H](CC)N(C)C(=O)C[C@@H](C(=O)N(C)CC)N(C)C(=O)[C@H](C2CCCC2)N(C)C(=O)C2(CCC2)NC(=O)[C@@H]2C[C@H](C)CN2C(=O)[C@H](CCc2ccc(C(F)(F)F)c(OC)c2)NC(=O)CN(C)C(=O)[C@H](Cc2ccc(C)cc2)N2CC/C=C\C[C@@H](C2=O)N(C)C(=O)CN(C)C1=O` [PP1853], 30.4 nM.
Consider `CC[C@H](C)[C@@H]1NC(=O)[C@H](CC(F)F)N(C)C(=O)C[C@@H](C(=O)N(C)C)N(C)C(=O)[C@H](C2CCCC2)N(C)C(=O)C2(CC(C)(C)C2)NC(=O)[C@@H]2C[C@H](C)CN2C(=O)[C@H](CCc2ccc(C(F)(F)F)c(OC)c2)NC(=O)CN(C)C(=O)[C@H](Cc2ccc(C)cc2)N2CC/C=C\C[C@@H](C2=O)N(C)C(=O)CN(C)C1=O` [PP1875], for which the IC50 is 7.7 nM.
`CC[C@H](C)[C@@H]1NC(=O)[C@H](CC(F)F)N(C)C(=O)C[C@@H](C(=O)N(C)C)N(C)C(=O)[C@H](C2CCCC2)N(C)C(=O)C2(CC(C)(C)C2)NC(=O)[C@@H]2C[C@@H](C)CN2C(=O)[C@H](CCc2ccc(C(F)(F)F)c(OC)c2)NC(=O)CN(C)C(=O)[C@H](Cc2ccc(C)cc2)N2CC/C=C\C[C@@H](C2=O)N(C)C(=O)CN(C)C1=O` [PP1877] came in with an IC50 of 18.4 nM.
Then `CC[C@H](C)[C@@H]1NC(=O)[C@H](CC)N(C)C(=O)C[C@@H](C(=O)N(C)CC)N(C)C(=O)[C@H](C2CCCC2)N(C)C(=O)C2(CC(C)(C)C2)NC(=O)[C@@H]2C[C@H](C)CN2C(=O)[C@H](CCc2cc(F)c(C(F)(F)F)c(F)c2)NC(=O)CN(C)C(=O)[C@H](Cc2ccc(C)cc2)N2CC/C=C\C[C@@H](C2=O)N(C)C(=O)CN(C)C1=O` [PP1882], with 20.2 nM; and `CC[C@H](C)[C@@H]1NC(=O)[C@H](CC)N(C)C(=O)C[C@@H](C(=O)N(C)CC)N(C)C(=O)[C@H](C2CCCC2)N(C)C(=O)C2(CC(C)(C)C2)NC(=O)[C@@H]2C[C@@H](C)CN2C(=O)[C@H](CCc2cc(F)c(C(F)(F)F)c(F)c2)NC(=O)CN(C)C(=O)[C@H](Cc2ccc(C)cc2)N2CC/C=C\C[C@@H](C2=O)N(C)C(=O)CN(C)C1=O` [PP1884], with 17.3 nM; and `CC[C@H](C)[C@@H]1NC(=O)[C@H](CC2CC2)N(C)C(=O)C[C@@H](C(=O)N(C)CC)N(C)C(=O)[C@H](C2CCCC2)N(C)C(=O)C2(CCC2)NC(=O)[C@@H]2C[C@H](C)CN2C(=O)[C@H](CCc2ccc(C(F)(F)F)c(OC)c2)NC(=O)CN(C)C(=O)[C@H](Cc2ccc(C)cc2)N2CC/C=C\C[C@@H](C2=O)N(C)C(=O)CN(C)C1=O` [PP1897], with 22.6 nM.
Regarding `CC[C@H](C)[C@@H]1NC(=O)[C@H](CC2CC2)N(C)C(=O)C[C@@H](C(=O)N(C)CC)N(C)C(=O)[C@H](C2CCCC2)N(C)C(=O)C2(CCC2)NC(=O)[C@@H]2C[C@@H](C)CN2C(=O)[C@H](CCc2ccc(C(F)(F)F)c(OC)c2)NC(=O)CN(C)C(=O)[C@H](Cc2ccc(C)cc2)N2CC/C=C\C[C@@H](C2=O)N(C)C(=O)CN(C)C1=O` [PP1900], the IC50 stood at 24.7 nM.
For the compound `CCCN1C(=O)CN(C)C(=O)CN(C)C(=O)[C@H]([C@@H](C)CC)NC(=O)[C@H](CC(C)C)N(C)C(=O)C[C@@H](C(=O)N2CCOCC2)N(C)C(=O)[C@H](C2CCCC2)N(C)C(=O)C2(CCCC2)NC(=O)[C@H](C)NC(=O)[C@H](CCc2ccc(C(F)(F)F)c(Cl)c2)NC(=O)CN(C)C(=O)[C@@H]1Cc1ccc(C(F)(F)F)cc1` [PP1914] ([NMeL]I[Sar][Sar][NPrPhe(4-CF3)][Sar][hPhe(3-Cl-4-CF3)]A[Ac5c][NMeGly(cPent)][NMeD]-Morpholide; lactam N-11), the IC50 came out at 39.7 nM.
Then `CCCN(C)C(=O)[C@@H]1CC(=O)N(C)[C@@H](COCC)C(=O)N[C@@H]([C@@H](C)CC)C(=O)N(C)CC(=O)N(C)[C@H]2C/C=C\CCN(C2=O)[C@@H](Cc2ccc(C(F)(F)F)cc2)C(=O)N(C)CC(=O)N[C@@H](CCc2cc(F)c(C(F)(F)F)c(F)c2)C(=O)N2C[C@@H](C)C[C@H]2C(=O)NC2(CCC2)C(=O)N(C)[C@@H](C2CCCC2)C(=O)N1C` [PP2002], with 15.7 nM; and `CCO[C@@H]1C[C@H]2C(=O)NC3(CCC3)C(=O)N(C)[C@@H](C3CCCC3)C(=O)N(C)[C@H](C(=O)N(C)CC)CC(=O)N(C)[C@@H](C(C)C)C(=O)N[C@@H]([C@@H](C)CC)C(=O)N(C)CC(=O)N(C)[C@H]3C/C=C\CCN(C3=O)[C@@H](Cc3ccc(C(F)(F)F)cc3)C(=O)N(C)CC(=O)N[C@@H](CCc3ccc(C(F)(F)F)c(OC)c3)C(=O)N2C1` [PP2019], with 4.5 nM; and `CCCN(C)C(=O)[C@@H]1CC(=O)N(C)[C@@H](CCOC)C(=O)N[C@@H]([C@@H](C)CC)C(=O)N(C)CC(=O)N(C)[C@H]2C/C=C\CCN(C2=O)[C@@H](Cc2ccc(C(F)(F)F)cc2)C(=O)N(C)CC(=O)N[C@@H](CCc2cc(F)c(C(F)(F)F)c(F)c2)C(=O)N2C[C@H](OCC)C[C@H]2C(=O)NC2(CC(C)(C)C2)C(=O)N(C)[C@@H](C2CCCC2)C(=O)N1C` [PP2033], with 11.8 nM.
With `C#CCN1CC(=O)N(C)[C@H]2C/C=C\CCN(C2=O)[C@@H](Cc2ccc(C)cc2)C(=O)N(C)CC(=O)N[C@@H](CCc2ccc(C(F)(F)F)c(OC)c2)C(=O)N2C[C@H](OCC)C[C@H]2C(=O)NC2(CC(C)(C)C2)C(=O)N(C)[C@@H](C2CCCC2)C(=O)N(C)[C@H](C(=O)N(C)C)CC(=O)N(C)[C@@H](CC(C)C)C(=O)N[C@@H]([C@@H](C)CC)C1=O` [PP2060] the figure was 7.4 nM; with `CC[C@H](C)[C@@H]1NC(=O)[C@H](CC(C)C)N(C)C(=O)CSC[C@H](C(=O)N(C)C)N(C)C(=O)[C@H](C2CCCC2)N(C)C(=O)C2(CCCC2)NC(=O)[C@@H]2CCCN2C(=O)[C@H](CCc2cc(F)c(C(F)(F)F)c(F)c2)NC(=O)CN(C)C(=O)[C@H](Cc2ccc(C(F)(F)F)cc2)N2CC/C=C\C[C@@H](C2=O)N(C)C(=O)CN(C)C1=O` [PP3109], 3420 nM.
With `CCO[C@@H]1C[C@H]2C(=O)NC3(CC(C)(C)C3)C(=O)N(C)[C@@H](C3CCCC3)C(=O)N(C)[C@H](C(=O)N(C)CC)CC(=O)N(C)[C@@H]([C@@H](C)OC)C(=O)N[C@@H]([C@@H](C)CC)C(=O)N(C)CC(=O)N(C)[C@H]3C/C=C\CCN(C3=O)[C@@H](Cc3ccc(C(F)(F)F)cc3)C(=O)N(C)CC(=O)N[C@@H](CCc3ccc(C(F)(F)F)c(Cl)c3)C(=O)N2C1` [PP3162] the figure was 9.6 nM.
